Values quoted from earlier work in patent US20240358731A1, “SUMO PATHWAY AS AN OXYGEN SENSOR RELEVANT TO THE PATHOPHYSIOLOGY OF PULMONARY ARTERY HYPERTENSION AND CARDIAC ARRHYTHMIA” (Northeastern University, priority 2023, published 2024).
Non-standard residues stand in square brackets, D forms with d. Residues, ends and D or L forms follow the SMILES beside them. ξ: configuration not given here. *: point of attachment. X2 = O=C(CN*)COC(=O)c1c2ccccc2cc2ccccc12; X1 = O=C(Cc1ccc(O)c([N+](=O)[O-])c1)*; Thr(3ξ) = CC(O)[C@H](N)C(=O)O

Tested on: SENP
Settings: cited from earlier work

Q: Which SENP inhibition does the source give for `O=CCN1C(=O)C(NC(=O)c2cccc(NC(=O)OCc3ccccc3)c2)N=C(c2ccccc2)c2ccccc21` (stereo not shown) [Compound 39] here?
A: The SENP inhibition was “potent and selective SENP inhibition”.

Q: With `O=C(COC(=O)c1ccc(NC(=O)c2cccc(OCc3ccccc3)c2)cc1)c1ccc(Cl)cc1` [Compound 43] as the molecule, how does the SENP inhibition read?
A: The SENP inhibition was “modest improvement in activity”.

Q: With `CCOc1ccc(-c2nonc2NC(=O)COc2ccc(Cl)c(C)c2)cc1C` [Compound 46] as the molecule, how does the SENP inhibition read?
A: The SENP inhibition was “potent and selective SENP inhibition”.

Q: For `Cc1cc(OCC(=O)Nc2nonc2NC(=O)COc2ccc(Cl)c(C)c2)ccc1Cl` [Compound 47], which SENP inhibition is on record?
A: The SENP inhibition was “potent and selective SENP inhibition”.

Q: For `O=C(NCc1cccc(CNC(=O)c2sc3cc(F)ccc3c2Cl)c1)c1sc2cc(F)ccc2c1Cl` [Compound 49], which SENP inhibition is on record?
A: Its SENP inhibition is “potent and selective SENP inhibition”.

Q: With `O=C(Nc1cccc(NC(=O)c2ccc(-c3cc(Cl)ccc3Cl)o2)c1)c1ccccc1` [Compound 50] as the molecule, how does the SENP inhibition read?
A: Its SENP inhibition is “potent and selective SENP inhibition”.

Q: For `COc1ccc(-c2cccc(C(=O)NCc3cccc(NC(=O)CCc4ccccc4)c3)c2)cc1` [Compound 51], which SENP inhibition is on record?
A: The SENP inhibition was “potent and selective SENP inhibition”.

Q: Which SENP inhibition does the source give for `CNC(=O)c1cc(COC(=O)c2ccc3c(c2)c(COc2ccc4[nH]ccc4c2)cn3S(C)(=O)=O)cc(=O)[nH]1` [Compound 52] here?
A: The SENP inhibition was “potent and selective SENP inhibition”.

Q: For `CS(=O)(=O)n1cc(COc2ccc3[nH]ccc3c2)c2cc(C(=O)OCc3cc(C#N)[nH]c(=O)c3)ccc21` [Compound 53], which SENP inhibition is on record?
A: The SENP inhibition was “potent and selective SENP inhibition”.

Q: Which SENP inhibition does the source give for `CNC(=O)c1cc(CNC(=O)c2ccc3c(c2)c(COc2ccc4[nH]ccc4c2)cn3S(C)(=O)=O)cc(=O)[nH]1` [Compound 54] here?
A: Its SENP inhibition is “potent and selective SENP inhibition”.

Q: With `O=C1C(O)=C(c2ccc(O)cc2)C(=O)C(O)=C1c1ccc(O)cc1` [NSC76919] as the molecule, how does the SENP inhibition read?
A: Its SENP inhibition is “exhibited inhibitory activity”.

Q: Which SENP inhibition does the source give for `O=C(/C=C/C1C(OC(=O)c2ccc(-c3ccccc3)cc2)CC2OC(=O)CC21)Oc1cccc(Cl)c1` (stereo not shown) [SI2] here?
A: Its SENP inhibition is “potent and selective SENP inhibition”.

Q: Which “inhibition of SUMO2 maturation” value does the source give for `Cc1cc(-c2ccc(/N=N/c3c(N)c(S(=O)(=O)O)cc4cc(S(=O)(=O)O)ccc34)c(C)c2)ccc1/N=N/c1c(N)ccc2ccc(S(=O)(=O)O)cc12` [SPI-02] here?
A: Its value is “more active at inhibiting SUMO2 maturation”.

Q: For `CC(O)[C@H](NC(=O)[C@H](CCC(N)=O)NC(=O)Cc1ccc(O)c([N+](=O)[O-])c1)C(=O)NCC(=O)NCC(=O)COC(=O)c1c2ccccc2cc2ccccc12` (stereo partly shown) [VAE-499], which SENP inhibition is on record?
A: The SENP inhibition was “more potent and selective SENP inhibitors”.

Q: For `CC(O)[C@H](NC(=O)[C@H](CCC(N)=O)NC(=O)[C@H](CCC(N)=O)NC(=O)Cc1ccc(O)c([N+](=O)[O-])c1)C(=O)NCC(=O)NCC(=O)COC(=O)c1c2ccccc2cc2ccccc12` (stereo partly shown) [VAE-500] (X1-QQ[Thr(3ξ)]G-X2), which SENP inhibition is on record?
A: The SENP inhibition was “more potent and selective SENP inhibitors”.

Q: For `CC(C)C[C@H](NC(=O)Cc1ccc(O)c([N+](=O)[O-])c1)C(=O)N[C@@H](CCCNC(=N)N)C(=O)NCC(=O)NCC(=O)COC(=O)c1c2ccccc2cc2ccccc12` [VAE-561], which SENP inhibition is on record?
A: The SENP inhibition was “more potent and selective SENP inhibitors”.

Tested on: SUMOylation
Settings: cited from earlier work

Q: Which SUMOylation inhibition does the source give for `Cc1cc2c(o1)-c1ccccc1C(=O)C2=O` [33-DINOR-dehydrodunnione] here?
A: The SUMOylation inhibition was “potent SUMOylation inhibitors”.

Q: Which SUMOylation inhibition does the source give for `CC1CC2=C(O1)c1ccccc1C(=O)C2=O` (stereo not shown) [33-DINOR-dunnione] here?
A: Its SUMOylation inhibition is “potent SUMOylation inhibitors”.

Q: Which SUMOylation inhibition does the source give for `COC(=O)C1=C(C(=O)OC)C2([C@@H](Cc3ccc(C)cc3)Nc3ccccc3)C=CC1O2` (stereo partly shown) [COH000] here?
A: Its SUMOylation inhibition is “more potent SUMOylation inhibitor”.

Q: With `COc1ccc(NC(=O)Nc2ccc(Oc3ncnc4cc(Cl)ccc34)nc2)cc1OC1CCCC1` [Compound 10] as the molecule, how does the SUMOylation inhibition read?
A: The SUMOylation inhibition was “potent in vitro SUMOylation inhibitor”.

Q: For `O=C(Oc1cc(C(=O)O[C@H]2O[C@@H](OC(=O)c3cc(O)c(O)c(OC(=O)c4cc(O)c(O)c(O)c4)c3)[C@H](OC(=O)c3cc(O)c(O)c(OC(=O)c4cc(O)c(O)c(O)c4)c3)[C@@H](OC(=O)c3cc(O)c(O)c(OC(=O)c4cc(O)c(O)c(O)c4)c3)[C@@H]2OC(=O)c2cc(O)c(O)c(OC(=O)c3cc(O)c(O)c(O)c3)c2)cc(O)c1O)c1cc(O)c(O)c(O)c1` [Davidiin], which SUMOylation inhibition is on record?
A: The SUMOylation inhibition was “one of the most potent natural product SUMOylation inhibitors identified”.

Q: For `CCc1cc(=O)[nH]c(-n2nc(-c3ccccc3)cc2NC(=O)Nc2ccc(C(C)(C)C)cc2)n1` [Pyrazole urea], which SUMOylation inhibition is on record?
A: The SUMOylation inhibition was “potent molecules capable of inhibiting SUMOylation in vitro”.

Q: For `CC1CC2=C(O1)c1cccc(O)c1C(=O)C2=O` (stereo not shown) [nocardione A], which SUMOylation inhibition is on record?
A: Its SUMOylation inhibition is “potent SUMOylation inhibitors”.

Q: With `COc1cc(NC(=O)Nc2nc(-c3nc4ccccc4s3)cs2)cc(OC)c1OC` [thiazole urea] as the molecule, how does the SUMOylation inhibition read?
A: Its SUMOylation inhibition is “potent molecules capable of inhibiting SUMOylation in vitro”.

Q: With `CC1(C)CCC2=C(O1)c1ccccc1C(=O)C2=O` [β-lapachone] as the molecule, how does the SUMOylation inhibition read?
A: Its SUMOylation inhibition is “potent SUMOylation inhibitors”.

Biological target: T1, SUMO activating enzyme (SAE) (Homo sapiens, UniProt Q9UBE0+Q9UBT2)
T1 sequence (Q9UBE0 1-346): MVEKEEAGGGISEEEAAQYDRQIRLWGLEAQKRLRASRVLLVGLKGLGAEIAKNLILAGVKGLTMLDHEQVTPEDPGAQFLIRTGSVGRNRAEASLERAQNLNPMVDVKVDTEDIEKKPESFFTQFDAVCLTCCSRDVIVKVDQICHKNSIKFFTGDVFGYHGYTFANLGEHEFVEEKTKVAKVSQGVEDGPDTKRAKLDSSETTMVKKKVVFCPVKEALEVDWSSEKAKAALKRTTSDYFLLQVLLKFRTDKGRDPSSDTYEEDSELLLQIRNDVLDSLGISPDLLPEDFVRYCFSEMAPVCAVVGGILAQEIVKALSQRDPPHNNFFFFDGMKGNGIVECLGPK
T1 sequence (Q9UBT2 1-640): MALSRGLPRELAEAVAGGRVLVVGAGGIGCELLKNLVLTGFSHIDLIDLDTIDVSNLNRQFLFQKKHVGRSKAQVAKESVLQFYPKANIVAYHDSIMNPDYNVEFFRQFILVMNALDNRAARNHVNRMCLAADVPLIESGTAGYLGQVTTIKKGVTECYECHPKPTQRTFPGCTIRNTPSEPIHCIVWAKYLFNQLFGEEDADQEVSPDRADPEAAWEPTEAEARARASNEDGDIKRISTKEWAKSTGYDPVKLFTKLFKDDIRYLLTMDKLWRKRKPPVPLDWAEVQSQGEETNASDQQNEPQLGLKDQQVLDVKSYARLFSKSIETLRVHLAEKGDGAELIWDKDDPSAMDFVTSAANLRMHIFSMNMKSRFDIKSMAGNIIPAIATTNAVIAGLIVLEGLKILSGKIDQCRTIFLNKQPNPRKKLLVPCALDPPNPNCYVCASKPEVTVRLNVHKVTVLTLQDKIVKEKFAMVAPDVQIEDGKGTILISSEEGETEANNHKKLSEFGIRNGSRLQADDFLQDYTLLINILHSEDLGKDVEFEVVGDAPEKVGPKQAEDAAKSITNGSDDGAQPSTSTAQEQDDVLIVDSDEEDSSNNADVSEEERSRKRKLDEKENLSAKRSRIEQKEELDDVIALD
Settings: cited from earlier work

Q: With `C=CC[C@@H](Nc1ccccc1)C12C=CC(O1)C(C(=O)OC)=C2C(=O)OC` (stereo partly shown) [CID9549553] as the molecule, how does the “SAE / SUMO E1 inhibition” value read?
A: The value was “covalently targets an allosteric binding pocket of SUMO E1”.

Q: Which “formation of the E1-SUMO complex” value does the source give for `COc1ccc(NC(=O)Nc2ccc(Oc3ncnc4cc(Cl)ccc34)nc2)cc1OC1CCCC1` [Compound 10] here?
A: Its value is “prevents formation of the E1-SUMO complex”.

Q: For `CCCCn1c(NS(=O)(=O)c2ccccc2)c(S(=O)(=O)c2ccc(C)cc2)c2nc3ccccc3nc21` [Compound 15], which “SAE / SUMO E1 inhibition” value is on record?
A: Its value is “most potent”.

Q: With `COc1ccc(-c2nnc(Nc3nc4c(OC)cccc4s3)o2)cc1` [Compound N106] as the molecule, how does the SUMO-E1 activation read?
A: The SUMO-E1 activation was “capable of increasing SUMOylation through the activation of SUMO-E1”.

Q: With `O=C(Oc1cc(C(=O)O[C@H]2O[C@@H](OC(=O)c3cc(O)c(O)c(OC(=O)c4cc(O)c(O)c(O)c4)c3)[C@H](OC(=O)c3cc(O)c(O)c(OC(=O)c4cc(O)c(O)c(O)c4)c3)[C@@H](OC(=O)c3cc(O)c(O)c(OC(=O)c4cc(O)c(O)c(O)c4)c3)[C@@H]2OC(=O)c2cc(O)c(O)c(OC(=O)c3cc(O)c(O)c(O)c3)c2)cc(O)c1O)c1cc(O)c(O)c(O)c1` [Davidiin] as the molecule, how does the “formation of the E1-SUMO complex” value read?
A: Its value is “blocks the formation of the E1-SUMO complex”.

Q: For `NS(=O)(=O)OC[C@H]1C[C@@H](Nc2ncncc2C(=O)c2ccn(Cc3cccc(Br)c3)n2)C[C@@H]1O` [ML-792], which “SAE / SUMO E1 inhibition” value is on record?
A: Its value is “selective SAE inhibitor”.
